# From patent publication US6737383B1, “Herbicidal oxadiazolidines” (priority 1999, dated 2004)
# Key:
# [1] = system: bedstraw; experiment: Test B pre/postemergence bedstraw; assay type: in vivo, Galium aparine
# In short: (§1)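 Herbicidal effect was estimated by eye on a ten-point control scale after plants spent twelve to sixteen days in a greenhouse following soil or foliar treatment. Foliar sprays targeted plants at one to four leaves; all doses were formulated in a non-phytotoxic solvent with surfactant.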
# [2] = system: smallflower flatsedge; experiment: Test B flood test smallflower flatsedge; assay type: in vivo, Cyperus difformis; conditions: Pre-emergence
# In short: (§2)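 Read-out is a visual response score from 0 (no effect) to 10 (complete control), assigned by comparison with untreated controls. Treatment was applied at the 2-leaf stage, and plants stayed in the greenhouse for twelve to sixteen days before scoring.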
# [3] = system: corn; experiment: Test B pre/postemergence corn; assay type: in vivo, Zea mays
# In short: as §1
# [4] = system: cocklebur; experiment: Test B pre/postemergence cocklebur; assay type: in vivo, Xanthium strumarium
# In short: as §1
# [5] = system: rice; experiment: Test B flood test rice; assay type: in vivo, Oryza sativa; conditions: Pre-emergence
# In short: as §2
# [6] = system: crabgrass; experiment: Test B pre/postemergence crabgrass; assay type: in vivo, Digitaria sanguinalis
# In short: as §1
# [7] = system: blackgrass; experiment: Test B pre/postemergence blackgrass; assay type: in vivo, Alopecurus myosuroides
# In short: as §1
# [8] = system: giant foxtail; experiment: Test B pre/postemergence giant foxtail; assay type: in vivo, Setaria faberii
# In short: as §1
# [9] = system: sugar beet; experiment: Test B pre/postemergence sugar beet; assay type: in vivo, Beta vulgaris
# In short: as §1
# [10] = system: bamyardgrass; experiment: Test B flood test barnyardgrass; assay type: in vivo, Echinochloa crus-galli; conditions: Pre-emergence
# In short: as §2
# [11] = system: soybean; experiment: Test B pre/postemergence soybean; assay type: in vivo, Glycine max
# In short: as §1
# [12] = system: surinam grass; experiment: Test B pre/postemergence surinam grass; assay type: in vivo, Brachiaria decumbens
# In short: as §1
# [13] = system: velvetleaf; experiment: Test B pre/postemergence velvetleaf; assay type: in vivo, Abutilon theophrasti
# In short: as §1
# [14] = system: purple nutsedge; experiment: Test B pre/postemergence purple nutsedge; assay type: in vivo, Cyperus rotundus
# In short: as §1
# [15] = system: pigweed; experiment: Test B pre/postemergence pigweed; assay type: in vivo, Amaranthus retroflexus
# In short: as §1
# [16] = system: wild oat; experiment: Test B pre/postemergence wild oat; assay type: in vivo, Avena fatua
# In short: as §1
# [17] = Postemergence, Rate 125 g/ha, scale 0 to 10, 0 is no effect, 10 is complete control
# [18] = Preemergence, Rate 62 g/ha, scale of 0 to 10 where 0 is no effect and 10 is complete control
# [19] = Preemergence, Rate 250 g/ha, scale of 0 to 10 where 0 is no effect and 10 is complete control
# [20] = Preemergence, Rate 500 g/ha, scale of 0 to 10 where 0 is no effect and 10 is complete control
# [21] = Rate 62 g/ha, Postemergence, scale 0 to 10 (0 no effect, 10 complete control)
# [22] = Rate 250 g/ha, Postemergence, scale of 0 to 10 where 0 is no effect and 10 is complete control
# [23] = Rate 500 g/ha, Postemergence, scale 0 to 10, 0 no effect, 10 complete control
# [24] = Rate 1000 g/ha, scale 0 to 10 (0 no effect, 10 complete control)
# [25] = Rate 125 g/ha, flood test species, scale 0 to 10 where 0 is no effect and 10 is complete control
# [26] = Rate 250 g/ha, flood-test species, scale 0 to 10, 0 is no effect, 10 is complete control
# [27] = Rate 500 g/ha, flood test species, scale 0 to 10 (0 no effect, 10 complete control)
structure (smiles),measurement,setting,value
CC(C)N(C(=O)n1oc(=O)n(-c2ccc3ccccc3c2)c1=O)c1ccc(Cl)cc1 [Compound 333],"Plant response rating, Bedstraw",[1]; [17],0
same,Bedstraw plant response rating,[1]; [18],0
same,Bedstraw plant response rating (0 to 10 scale),"[1]; Preemergence, Rate 125 g/ha",0
same,Bedstraw plant response rating,[1]; [19],0
same,Bedstraw plant response rating,[1]; [20],0
same,Bedstraw plant response rating,[1]; [21],0
same,"Plant response rating, Bedstraw",[1]; [22],0
same,"Plant response rating, Bedstraw",[1]; [23],0
same,S. Flatsedge plant response rating,[2]; [24],0
same,S. Flatsedge plant response rating,[2]; [25],0
same,S. Flatsedge plant response rating,[2]; [26],0
same,S. Flatsedge plant response rating,[2]; [27],0
same,"Plant response rating, Corn",[3]; [17],0
same,Corn plant response rating,[3]; [18],0
same,Corn plant response rating (0 to 10 scale),"[3]; Preemergence, Rate 125 g/ha",0
same,Corn plant response rating,[3]; [19],0
same,Corn plant response rating,[3]; [20],0
same,Corn plant response rating,[3]; [21],0
same,"Plant response rating, Corn",[3]; [23],0
same,"Plant response rating, Cocklebur",[4]; [17],0
same,Cocklebur plant response rating,[4]; [18],0
same,Cocklebur plant response rating (0 to 10 scale),"[4]; Preemergence, Rate 125 g/ha",0
same,Cocklebur plant response rating,[4]; [19],0
same,Cocklebur plant response rating,[4]; [20],0
same,Cocklebur plant response rating,[4]; [21],0
same,"Plant response rating, Cocklebur",[4]; [23],0
same,Rice plant response rating,[5]; [24],0
same,Rice plant response rating,[5]; [25],0
same,Rice plant response rating,[5]; [26],0
same,Rice plant response rating,[5]; [27],0
same,"Plant response rating, Crabgrass",[6]; [17],0
same,Crabgrass plant response rating,[6]; [18],0
same,Crabgrass plant response rating (0 to 10 scale),"[6]; Preemergence, Rate 125 g/ha",0
same,Crabgrass plant response rating,[6]; [19],0
same,Crabgrass plant response rating,[6]; [20],3
same,Crabgrass plant response rating,[6]; [21],0
same,"Plant response rating, Crabgrass",[6]; [23],0
same,"Plant response rating, Blackgrass",[7]; [17],0
same,Blackgrass plant response rating,[7]; [18],0
same,Blackgrass plant response rating (0 to 10 scale),"[7]; Preemergence, Rate 125 g/ha",0
same,Blackgrass plant response rating,[7]; [19],0
same,Blackgrass plant response rating,[7]; [20],0
same,Blackgrass plant response rating,[7]; [21],0
same,"Plant response rating, Blackgrass",[7]; [22],0
same,"Plant response rating, Blackgrass",[7]; [23],0
same,"Plant response rating, Giant foxtail",[8]; [17],0
same,Giant foxtail plant response rating,[8]; [18],0
same,Giant foxtail plant response rating (0 to 10 scale),"[8]; Preemergence, Rate 125 g/ha",0
same,Giant foxtail plant response rating,[8]; [19],0
same,Giant foxtail plant response rating,[8]; [20],2
same,Giant foxtail plant response rating,[8]; [21],0
same,"Plant response rating, Giant foxtail",[8]; [23],0
same,"Plant response rating, Sugarbeets",[9]; [17],0
same,Sugarbeets plant response rating,[9]; [18],0
same,Sugarbeets plant response rating (0 to 10 scale),"[9]; Preemergence, Rate 125 g/ha",0
same,Sugarbeets plant response rating,[9]; [19],0
same,Sugarbeets plant response rating,[9]; [20],0
same,Sugarbeets plant response rating,[9]; [21],0
same,"Plant response rating, Sugarbeets",[9]; [23],0
same,Barnyardgrass plant response rating,[10]; [24],0
same,Barnyardgrass plant response rating,[10]; [25],0
same,Barnyardgrass plant response rating,[10]; [26],0
same,Barnyardgrass plant response rating,[10]; [27],0
same,"Plant response rating, Soybean",[11]; [17],2
same,Soybean plant response rating,[11]; [18],0
same,Soybean plant response rating (0 to 10 scale),"[11]; Preemergence, Rate 125 g/ha",0
same,Soybean plant response rating,[11]; [19],0
same,Soybean plant response rating,[11]; [20],0
same,Soybean plant response rating,[11]; [21],2
same,"Plant response rating, Soybean",[11]; [23],4
same,"Plant response rating, B. signalgrass",[12]; [17],0
same,B. signalgrass plant response rating,[12]; [18],0
same,"B. signalgrass plant response rating (0 to 10 scale, 0 is no effect, 10 is complete control)","[12]; Preemergence, Rate 125 g/ha",0
same,B. signalgrass plant response rating,[12]; [19],0
same,B. signalgrass plant response rating,[12]; [20],0
same,B. signalgrass plant response rating,[12]; [21],0
same,"Plant response rating, B. signalgrass",[12]; [22],0
same,"Plant response rating, B. signalgrass",[12]; [23],0
same,"Plant response rating, Velvetleaf",[13]; [17],0
same,Velvetleaf plant response rating,[13]; [18],0
same,Velvetleaf plant response rating (0 to 10 scale),"[13]; Preemergence, Rate 125 g/ha",0
same,Velvetleaf plant response rating,[13]; [19],0
same,Velvetleaf plant response rating,[13]; [20],0
same,Velvetleaf plant response rating,[13]; [21],0
same,"Plant response rating, Velvetleaf",[13]; [23],0
same,"Plant response rating, Nutsedge",[14]; [17],0
same,Nutsedge plant response rating,[14]; [18],0
same,Nutsedge plant response rating (0 to 10 scale),"[14]; Preemergence, Rate 125 g/ha",0
same,Nutsedge plant response rating,[14]; [19],0
same,Nutsedge plant response rating,[14]; [20],0
same,Nutsedge plant response rating,[14]; [21],0
same,"Plant response rating, Nutsedge",[14]; [23],0
same,"Plant response rating, Redroot pigweed",[15]; [17],0
same,Redroot pigweed plant response rating,[15]; [18],0
same,Redroot pigweed plant response rating (0 to 10 scale),"[15]; Preemergence, Rate 125 g/ha",0
same,Redroot pigweed plant response rating,[15]; [19],0
same,Redroot pigweed plant response rating,[15]; [20],0
same,Redroot pigweed plant response rating,[15]; [21],0
same,"Plant response rating, Redroot pigweed",[15]; [23],0
same,"Plant response rating, Wild oats",[16]; [17],0
same,Wild oats plant response rating,[16]; [18],0
same,Wild oats plant response rating (0 to 10 scale),"[16]; Preemergence, Rate 125 g/ha",0
same,Wild oats plant response rating,[16]; [19],0
same,Wild oats plant response rating,[16]; [20],0
same,Wild oats plant response rating,[16]; [21],0
same,"Plant response rating, Wild oats",[16]; [23],0
